Assay results published in publication PMC10285300, “Abscisic acid mimic-fluorine derivative 4 alleviates water deficit stress by regulating ABA-responsive genes, proline accumulation, CO2 assimilation, water use efficiency and better nutrient uptake in tomato plants” (Frontiers in Plant Science, 2023).

Experiments:
[1] = target: T1, ΔN-HAB1 (Arabidopsis thaliana, UniProt Q9CAJ0); assay: phosphatase activity, […] nm, […] min; type: biochemical; conditions: 25 mM pNPP, 10 mM MnCl2, Tris pH 8.0
T1 sequence (Q9CAJ0 172-511 limits assumed): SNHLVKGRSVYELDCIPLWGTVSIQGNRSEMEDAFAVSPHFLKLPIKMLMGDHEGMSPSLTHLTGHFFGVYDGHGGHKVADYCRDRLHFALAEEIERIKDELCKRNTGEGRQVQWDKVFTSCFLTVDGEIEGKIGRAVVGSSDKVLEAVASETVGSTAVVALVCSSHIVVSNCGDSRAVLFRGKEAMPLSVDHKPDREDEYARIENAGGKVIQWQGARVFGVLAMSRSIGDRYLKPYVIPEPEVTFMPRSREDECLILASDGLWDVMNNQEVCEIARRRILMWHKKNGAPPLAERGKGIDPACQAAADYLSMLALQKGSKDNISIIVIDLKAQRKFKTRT

[2] = target: T2, Sl08g076960 (Solanum lycopersicum, UniProt A0A3Q7HTY9); assay: PP2C inhibition assay (pNPP, […] nm), receptor-dependent inhibition of HAB1; type: biochemical; conditions: agonist; deltaN-HAB1 1 uM, receptor 2 uM, 25 mM pNPP, 10 mM MnCl2, Tris pH 8.0
T2 construct: gene LOC101268417; with Protein phosphatase 2C 16 (Arabidopsis thaliana)
T2 sequence (A0A3Q7HTY9 1-231): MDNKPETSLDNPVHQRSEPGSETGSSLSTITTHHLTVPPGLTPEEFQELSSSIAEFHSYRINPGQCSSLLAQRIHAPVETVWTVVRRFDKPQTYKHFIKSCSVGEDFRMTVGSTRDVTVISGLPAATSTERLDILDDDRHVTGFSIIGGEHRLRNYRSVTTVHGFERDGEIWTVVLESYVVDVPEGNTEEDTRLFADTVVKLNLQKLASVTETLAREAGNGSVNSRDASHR
T2 sequence (Q9CAJ0 172-511 partner limits assumed): T1 sequence (Q9CAJ0 172-511 limits assumed)

| SMILES | phosphatase activity, 405 nm, 20 min [1] | PP2C activity at 1 or 10 μM [2] |
| --- | --- | --- |
| O=[N+]([O-])c1ccc(OP(=O)(O)O)cc1 [p-nitrophenyl phosphate] | Phosphatase activity was measured using p-nitrophenyl phosphate (pNPP) as a substrate | – |
| CCCN1C(=O)CCc2cc(NS(=O)(=O)Cc3c(F)c(F)c(C)c(F)c3F)ccc21 [AMF4, N-(2-oxo-1-propyl-1,2,3,4-tetrahydroquinolin-6-yl)-1-(2,3,5,6-tetrafluoro-4-methylphenyl) methanesulfonamide] | – | both PYL1-like tomato receptors were activated by AMF4, resulting in the inhibition of the PP2C |
